The text below walks through data of the supplement of paper PMC10307832.

Common to all, as to assay: relative viability (nuclei count vs DMSO), 5 days (fraction); higher = more cells survive
Compound in the assay “IU1-47 + Bortezomib”: CC1=CC(=C(N1C2=CC=C(C=C2)Cl)C)C(=O)CN3CCCCC3 [IU1-47] + CC(C)C[C@H](NC(=O)[C@H](Cc1ccccc1)NC(=O)c1cnccn1)B(O)O [Bortezomib] (partner 0.002 µM)
The method, boiled down:
(§1)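 The day after seeding in 1536-well plates, lung cancer cell lines were treated by pin tool with a single drug, or with a fixed anchor-drug dose together with five library-drug doses (not always all listed) in √10 steps. After 5 days, a combined fix-and-stain solution (final 0.05% Triton X-100, 1% formaldehyde, 1 ug/ml Hoechst) was added. Nuclei counted on 4× images gave relative viability as treated counts over vehicle counts, reported as the median of duplicate plates.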

Compound in the assay “IU1-47 + Navitoclax”: CC1=CC(=C(N1C2=CC=C(C=C2)Cl)C)C(=O)CN3CCCCC3 [IU1-47] + CC1(C)CCC(c2ccc(Cl)cc2)=C(CN2CCN(c3ccc(C(=O)NS(=O)(=O)c4ccc(N[C@H](CCN5CCOCC5)CSc5ccccc5)c(S(=O)(=O)C(F)(F)F)c4)cc3)CC2)C1 [Navitoclax] (partner 0.5 µM)
The method, boiled down:
as §1

Compound in the assay “IU1-47 + Pemetrexed”: CC1=CC(=C(N1C2=CC=C(C=C2)Cl)C)C(=O)CN3CCCCC3 [IU1-47] + Nc1nc2[nH]cc(CCc3ccc(C(=O)N[C@@H](CCC(=O)O)C(=O)O)cc3)c2c(=O)[nH]1 [Pemetrexed] (partner 0.2 µM)
The method, boiled down:
as §1

Compound in the assay “FG-4592 + Phenformin”: Cc1nc(C(=O)NCC(=O)O)c(O)c2ccc(Oc3ccccc3)cc12 [FG-4592] + N=C(N)NC(=N)NCCc1ccccc1 [Phenformin] (partner 250 µM)
The method, boiled down:
as §1

For PC-14, the relative viability with IU1-47 + Bortezomib (first compound 0.08 µM) stood at 1.12; with IU1-47 + Bortezomib (first compound 0.253 µM) it was 0.833; in the assay with IU1-47 + Bortezomib (first compound 0.8 µM), 0.957; with IU1-47 + Bortezomib (first compound 2.53 µM), 0.942; in the assay with IU1-47 + Bortezomib (first compound 8 µM), 0.697; in the assay with IU1-47 + Navitoclax (first compound 0.08 µM) it was 1.22. Besides, the relative viability came to 1.14 in the assay with IU1-47 + Navitoclax (first compound 0.253 µM); 1.16 in the assay with IU1-47 + Navitoclax (first compound 0.8 µM); 1.06 with IU1-47 + Navitoclax (first compound 2.53 µM); 0.932 with IU1-47 + Navitoclax (first compound 8 µM); 0.169 with IU1-47 + Pemetrexed (first compound 0.08 µM); 0.129 in the assay with IU1-47 + Pemetrexed (first compound 0.253 µM). Moreover, the relative viability with IU1-47 + Pemetrexed (first compound 0.8 µM) is 0.171; in the assay with IU1-47 + Pemetrexed (first compound 2.53 µM), 0.153; with IU1-47 + Pemetrexed (first compound 8 µM), 0.144; in the assay with FG-4592 + Phenformin (first compound 0.08 µM), 0.628; in the assay with FG-4592 + Phenformin (first compound 0.253 µM) it was 0.505; in the assay with FG-4592 + Phenformin (first compound 0.8 µM), 0.411. For the same cell line, the relative viability with FG-4592 + Phenformin (first compound 2.53 µM) was 0.667; in the assay with FG-4592 + Phenformin (first compound 8 µM), 0.558.

For RERF-LC-KJ, the relative viability in the assay with IU1-47 + Bortezomib (first compound 0.08 µM) was determined as 1.16; with IU1-47 + Bortezomib (first compound 0.253 µM), 1.18; with IU1-47 + Bortezomib (first compound 0.8 µM), 1.12; with IU1-47 + Bortezomib (first compound 2.53 µM) it was 1.14; in the assay with IU1-47 + Bortezomib (first compound 8 µM), 1.06; with IU1-47 + Navitoclax (first compound 0.08 µM) it was 0.939. For the same cell line, the relative viability stood at 0.812 with IU1-47 + Navitoclax (first compound 0.253 µM); 0.839 with IU1-47 + Navitoclax (first compound 0.8 µM); 1.14 with IU1-47 + Navitoclax (first compound 2.53 µM); 0.879 with IU1-47 + Navitoclax (first compound 8 µM); 0.503 in the assay with IU1-47 + Pemetrexed (first compound 0.08 µM); 0.454 with IU1-47 + Pemetrexed (first compound 0.253 µM). Besides, the relative viability came to 0.523 in the assay with IU1-47 + Pemetrexed (first compound 0.8 µM); 0.389 in the assay with IU1-47 + Pemetrexed (first compound 2.53 µM); 0.479 with IU1-47 + Pemetrexed (first compound 8 µM); 0.378 in the assay with FG-4592 + Phenformin (first compound 0.08 µM); 0.324 with FG-4592 + Phenformin (first compound 0.253 µM); 0.418 with FG-4592 + Phenformin (first compound 0.8 µM). Moreover, the relative viability with FG-4592 + Phenformin (first compound 2.53 µM) came to 0.538; with FG-4592 + Phenformin (first compound 8 µM), 0.481.

For the cell line SK-LU-1, the relative viability with IU1-47 + Bortezomib (first compound 0.08 µM) amounted to 1.22; with IU1-47 + Bortezomib (first compound 0.253 µM), 1.2; in the assay with IU1-47 + Bortezomib (first compound 0.8 µM), 1.4; with IU1-47 + Bortezomib (first compound 2.53 µM), 1.03; with IU1-47 + Bortezomib (first compound 8 µM), 1.05; with IU1-47 + Navitoclax (first compound 0.08 µM) it was 0.853. Also, the relative viability with IU1-47 + Navitoclax (first compound 0.253 µM) was determined as 0.855; with IU1-47 + Navitoclax (first compound 0.8 µM), 0.819; with IU1-47 + Navitoclax (first compound 2.53 µM), 0.839; with IU1-47 + Navitoclax (first compound 8 µM), 0.847; in the assay with IU1-47 + Pemetrexed (first compound 0.08 µM), 0.981; in the assay with IU1-47 + Pemetrexed (first compound 0.253 µM) it was 1.05. Moreover, the relative viability with IU1-47 + Pemetrexed (first compound 0.8 µM) was determined as 1.03; in the assay with IU1-47 + Pemetrexed (first compound 2.53 µM) it was 1.02; with IU1-47 + Pemetrexed (first compound 8 µM) it was 0.887; in the assay with FG-4592 + Phenformin (first compound 0.08 µM), 0.445; with FG-4592 + Phenformin (first compound 0.253 µM) it was 0.387; with FG-4592 + Phenformin (first compound 0.8 µM) it was 0.456. The relative viability in the assay with FG-4592 + Phenformin (first compound 2.53 µM) was found to be 0.49; in the assay with FG-4592 + Phenformin (first compound 8 µM) it was 0.5.

With SW 1573, the relative viability turned out to be 1.15 with IU1-47 + Bortezomib (first compound 0.08 µM); 1.04 with IU1-47 + Bortezomib (first compound 0.253 µM); 1.41 with IU1-47 + Bortezomib (first compound 0.8 µM); 1.3 in the assay with IU1-47 + Bortezomib (first compound 2.53 µM); 0.861 with IU1-47 + Bortezomib (first compound 8 µM); 1.03 with IU1-47 + Navitoclax (first compound 0.08 µM). The relative viability was 1.14 with IU1-47 + Navitoclax (first compound 0.253 µM); 1.04 in the assay with IU1-47 + Navitoclax (first compound 0.8 µM); 0.893 with IU1-47 + Navitoclax (first compound 2.53 µM); 1.09 with IU1-47 + Navitoclax (first compound 8 µM); 0.935 with IU1-47 + Pemetrexed (first compound 0.08 µM); 0.912 with IU1-47 + Pemetrexed (first compound 0.253 µM). Also, the relative viability with IU1-47 + Pemetrexed (first compound 0.8 µM) is 0.766; with IU1-47 + Pemetrexed (first compound 2.53 µM), 0.657; with IU1-47 + Pemetrexed (first compound 8 µM), 0.749; with FG-4592 + Phenformin (first compound 0.08 µM), 0.388; with FG-4592 + Phenformin (first compound 0.253 µM) it was 0.346; with FG-4592 + Phenformin (first compound 0.8 µM) it was 0.435. The relative viability in the assay with FG-4592 + Phenformin (first compound 2.53 µM) amounted to 0.372; with FG-4592 + Phenformin (first compound 8 µM), 0.35.
